Source: publication PMC8406319, “The dCache Chemoreceptor TlpA of Helicobacter pylori Binds Multiple Attractant and Antagonistic Ligands via Distinct Sites” (mBio, 2021)
Where a name gives a salt, the structure may show the parent alone.

What was measured:
TlpALBD = assay: Small-molecule ligand binding array; design: species or system Helicobacter pylori SS1; conditions: ligand binding array screen; n = 3; note: key: + for positive binding; +/− for intermediate binding; − for no binding
Experimental: Small-molecule arrays were prepared and performed as previously described ([57]). Briefly, 1 μg of purified TlpALBD in phosphate-buffered saline (PBS) (pH 7.2) was incubated with a molar concentration ratio (4:2:1) of anti-His antibody (Cell Signaling), followed by incubation with a secondary antibody (Thermo Scientific) for signal amplification. The protein-antibody mix was added to an Arrayit Superepoxy III glass substrate array blocked with PBS (pH 7.2) with 1% bovine serum albumin. […] Unbound protein was washed away with PBS with 0.05% Tween. […] Three biological replicates were performed, with a total of 12 data points for each glycan tested. Binding was classified as positive for a ligand if the relative fluorescence unit value was >1-fold above the mean background (defined as the average background of negative-control spots plus 3 standard deviations [SD]) and was statistically significant (P < 0.005 by Student’s t test). Small-molecule array slide preparation and analysis were done according to MIRAGE guidelines ([58]) (outlined in Table S5).
Classification Guidelines
1. Sample: Glycan Binding Sample
Origin: Helico bact er pyl ori SS1; produce d as a reco mbinant His -tagged protein in E.
The preparation of TlpA is exp lained in the Materials and Methods se ct ion: TlpA co nst ruct desi gn and protein purifica tion.
Sample Sample is a His Tagged protein co ntaining only the periplasm ic rece ptor domain, amino […]
Please see Materials and Methods: Li ga nd bi ndi ng arra y.
Proteins were co mplexe d with mouse anti-his antibody, with se co ndary and tertiary Alexa Fluor555 antibodies (rabbit anti-mouse , goat anti-rabbit) at a molar ratio of 4:2:1.
The protein/antibody co mplex was incu bated on ice for 10 mins prior to placi ng on the Assa y array. Arrays were performed with 1 µg of co mplexe d protein incu bated on the array for protoco l 20 min. Arrays were then wash ed 3 times in Array PBS (PBS + 2 mM MgCl2 + 2 mM CaCl2) then dried by ce ntrifugation for 3 min at 300 x g. Sca nning was performed usi ng an Innopsys InnoSca n 1100AL and analyze d usi ng Mapix (Innopsy s). Yes/ no binding was determined by si x posi tive replica te sp ots in three replica te exp eriments. […]
2.2 Small molecule Library […]
descr iption for Compounds printed in the amino aci d/small molecu le array for this st udy are list ed in […]
5.2 Small molecule array with “Map”
The array co nsi sts of triplica te su b-arrays of amino aci ds and sm all moleucl es (24 rows x 10 co lumns) with 400μm sp ot sp aci ng (ce ntre to ce ntre) with a minimum sp ot si ze of 100μm . Each sa mple is printed si x times, with each of the 3 su b-arrays incl uding at least Array layo ut si x negative co ntrol sa mples (print so lution only) and a posi tive co ntrol sa mples […]
Posi tive co ntrols provi de proof of su cce ssf ul immobiliza tion of the amine reagents and provi des for orientation for analysi s.
Sample Arrays are quality co ntrolled by a range of measu res. 1. Each printed array is post print identifica tion sca nned to co nfirm deposi tion of the sa mples on the array su rface prior to neutraliza tion and quality of the remaining sl ide su rface . 2. Post neutralize d sl ides are sca nned again to monitor co ntrol for remaining autofluoresce nce .
1. 6. Detector and Data Processing
Sca nning reso lution: […]
Sca n powers: Low lase r power. […]
analysi s Innopsys MAPIX.

H. pylori PMSS1 WT = assay: Temporal chemotaxis assay (live-cell video microscopy, direction changes), WT; assay type: cell-based, Helicobacter pylori; conditions: for Chemotactic response (direction changes vs mock): WT, 0.1, 1, 10 mM tested, acidic ligand stocks pH neutralized with NaOH, 10 mM most significant; for Chemotactic response, ligand stock pH not adjusted: acidic in solution, unadjusted pH
Experimental: H. pylori chemotactic responses toward the seven putative TlpA-dependent ligands were examined by a live-cell video microscopy assay that measures the temporal chemotaxis response to test ligands. […] Acidic conditions are sensed by chemoreceptors other than TlpA ([24], [29], [31]) and potentially mask chemotactic responses to the ligands being tested.
Cultures of H. pylori PMSS1 WT and ΔtlpA strains were grown overnight, back-diluted, and then incubated until an OD600 of 0.12 to 0.15 was reached. Cultures were treated with water (Mock) or various concentrations of compounds, as indicated. […] The cells were immediately filmed, and direction changes were counted over a 3-s swimming period in at least 100 cells per treatment from 3 biological replicates. Data are normalized to the values for the untreated control for each strain, as described in Materials and Methods. Error bars represent the standard errors of the means. *, P < 0.05; **, P < 0.01; ***, P < 0.001 (comparisons to the untreated control per strain using two-way ANOVA with Dunnett’s multiple-comparison test).
Swimming behavior assays were done with H. pylori PMSS1 strains grown in BB10 as described above. Cultures grown overnight were diluted to an optical density at 600 nm (OD600) of 0.1 in fresh BB10 and then incubated with shaking as described above until an OD600 of 0.12 to 0.15 was reached. […] The number of direction changes in a bacterial swimming trajectory was enumerated over a 3-s interval to determine whether each putative ligand is sensed as an attractant or repellent or elicits no response ([20], [25][–][30]). […] Each control is sensed by chemoreceptors other than TlpA ([24], [25], [29], [31]). The pH of BB10 upon treatment was independently assessed using a Denver Instruments pH meter. […] Therefore, to be able to compare the results to those of previous experiments, we continued resuspending acidified ligands in pure water and then adjusting the pH of the resuspended ligand using NaOH. Cultures were filmed immediately after ligand addition at a ×400 magnification using a Hamamatsu C4742-95 digital camera with μManager software (version 1.4.22), mounted on a Nikon Eclipse E600 phase-contrast microscope. For the competition chemotaxis assay, cultures of H. pylori and ligands were prepared as described above. However, 1 min after the addition of a nonchemoactive ligand at a final concentration of 10 mM, a chemoactive ligand was added at a final concentration of 10 mM, and the cultures were then filmed as described above. Videos were relabeled to blind the observer to the strain identity. For each sample, >100 3-s-long bacterial tracks from three independent cultures were analyzed manually to identify stops followed by direction changes. Data for all biological replicates under each condition were combined, and the average number of direction changes in 3 s and the standard error of the mean were calculated. For each strain, data were normalized to the values for the untreated control under each experimental condition. Statistical analysis of the data for treated versus untreated samples was performed using two-way analysis of variance (ANOVA) and Dunnett’s multiple-comparison test.

SMILES | Array result (TlpALBD) | Chemotactic response (direction changes vs mock) (H. pylori PMSS1 WT) | Chemotactic response, ligand stock pH not adjusted (H. pylori PMSS1 WT)
N=C(N)NCCC[C@H](N)C(=O)O [Arginine, L-arginine monohydrochloride] | + | fewer direction changes | 
O=C(O)C[C@H](O)C(=O)O [Malic acid, L-malic acid] | +/− | no significant direction changes | significant TlpA-independent chemorepellent responses
N[C@H]1C(O)O[C@H](CO)[C@@H](O)[C@@H]1O (stereo partly drawn) [Glucosamine, D(+)-glucosamine hydrochloride] | + | no significant direction changes | 
O=C(O)/C=C/C(=O)O [Fumarate, sodium fumarate] | + | fewer direction changes | 
Cc1ncc(C[n+]2csc(CCO)c2C)c(N)n1 [Thiamine, thiamine hydrochloride] | +/− | no significant direction changes | significant TlpA-independent chemorepellent responses
N[C@@H](CS)C(=O)O [Cysteine, L-cysteine hydrochloride monohydrate] | +/− | fewer direction changes | significant TlpA-independent chemorepellent responses
